Patent US6706663B2, “Herbicidal 3-heterocyclic substituted benzisothiazole and benzisoxazole compounds” (Wyeth, priority 2000, dated 2004)

Legend:
[1] = system: MOOVA (Monochoria vaginalis); test: Flooded paddy, preemergence weed control; assay type: in vivo, Presl.; conditions: rated 3-4 weeks after treatment, 0-9 rating scale
Procedure, shortened: (§1)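 Under paddy conditions, seeds or vegetative propagules go into the top 0.5 cm of silt loam; the soil is then flooded to 1.5–3 cm and kept so. Treated pots stay in a greenhouse; response is rated 0-9 visually versus control.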

[2] = system: ABUTH (Abutilon theophrasti); test: Preemergence herbicidal evaluation; assay type: in vivo, Medic.; conditions: rated 4-5 weeks after treatment
[3] = system: CHEAL (Chenopodium album); test: Preemergence herbicidal evaluation; assay type: in vivo, L.; conditions: rated 4-5 weeks after treatment
Procedure, shortened: (§2)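 Steps: mix seeds with potting soil; plant on ~1 inch soil per cup; spray compound in aqueous acetone; hold on greenhouse benches with routine watering; rate 0–9 visually against control at 4–5 weeks.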

[4] = system: CASOB (Cassia obtusifolia); test: Preemergence herbicidal evaluation; assay type: in vivo, L.; conditions: rated 4-5 weeks after treatment
Procedure, shortened: as §2

[5] = system: AMBEL (Ambrosia artemisifolia); test: Preemergence herbicidal evaluation; assay type: in vivo, L.; conditions: rated 4-5 weeks after treatment
Procedure, shortened: as §2

[6] = system: ZEAMX (Corn, Field); test: Preemergence herbicidal evaluation; assay type: in vivo, Zea mays, L.; conditions: rated 4-5 weeks after treatment
[7] = system: SETVI (Setaria viridis); test: Postemergence herbicidal evaluation; assay type: in vivo, (L.) Beau; conditions: postemergence
Procedure, shortened: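 ~2-wk seedlings; spray 0.0040–1.000 kg/ha in 50/50 acetone/water + 0.5% TWEEN 20, 40 psi nozzle. Greenhouse hold; visual 0–9 rating vs control at 4–5 wk; multiple tests averaged.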

[8] = system: IPOHE (Ipomoea hederacea); test: Preemergence herbicidal evaluation; assay type: in vivo, (L.) Jacq.; conditions: rated 4-5 weeks after treatment
[9] = system: ECHORC (Echinochloa oryzoides); test: Flooded paddy, preemergence weed control; assay type: in vivo, Echinochloa oryzoides (Ard.) Fritsch.; conditions: rated 3-4 weeks after treatment, 0-9 rating scale
Procedure, shortened: as §1

[10] = system: ECHCG (Echinochloa crus-galli); test: Postemergence herbicidal evaluation; assay type: in vivo, (L.) Beau; conditions: postemergence
Procedure, shortened: (§3)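 Visual 0–9 injury scores versus control plants, covering stand, vigour, malformation, size, chlorosis and general appearance, taken four to five weeks post-spray and averaged over replicate tests. Plants were sprayed at roughly two weeks old and held on greenhouse benches.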

[11] = system: SAGPY (Sagittaria pygmaea); test: Flooded paddy, preemergence weed control; assay type: in vivo, L.; conditions: rated 3-4 weeks after treatment, 0-9 rating scale
Procedure, shortened: as §1

[12] = system: TRZAWR (Wheat, Winter, cv Riband); test: Postemergence herbicidal evaluation; assay type: in vivo, Triticum aestivum; conditions: postemergence
Procedure, shortened: as §3

[13] = system: GLXMAW (Soybean, Williams); test: Preemergence herbicidal evaluation; assay type: in vivo, Glycine max, (L.) Merr. cv Williams; conditions: rated 4-5 weeks after treatment
[14] = system: CYPIR (Cyperus iria); test: Flooded paddy, preemergence weed control; assay type: in vivo; conditions: rated 3-4 weeks after treatment, 0-9 rating scale
Procedure, shortened: as §1

[15] = system: ORYSAT (Rice, Tebonnet); test: Flooded paddy, post-transplant rice tolerance; assay type: in vivo, Oryza sativa, (L.) Tebonnet; conditions: flooded paddy, post-transplant rice, rated 3-4 weeks after treatment, 0-9 rating scale
Procedure, shortened: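 Steps: transplant two ten-day-old seedlings into silt loam; flood to 1.5-3 cm above soil; apply herbicide post-transplant; maintain water on greenhouse benches; rate stand, vigor, malformation, size and chlorosis on a 0-9 visual scale versus control.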

CCCC1COC(c2nsc3ccc(-n4c(=O)cc(C(F)(F)F)n(C)c4=O)cc23)O1 (stereo not drawn) [Compound 77, 1-methyl-3-[3-(4-propyl-1,3-dioxolan-2-yl)-1,2-benzisothiazol-5-yl]-6-(trifluoromethyl)uracil] was tested, and the “herbicidal rating, MOOVA” value ([1]; rate 0.0080 kg/ha) was 0.0, the “herbicidal rating, MOOVA” value ([1]; rate 0.0320 kg/ha) was 9.0 and the “herbicidal rating, MOOVA” value ([1]; rate 0.1250 kg/ha) was 9.0. The “Preemergence herbicidal rating ABUTH” value ([2]; Rate 0.0620 kg/ha) was 9.0, the “Preemergence herbicidal rating ABUTH” value ([2]; Rate 0.1250 kg/ha) was 9.0 and the “Preemergence herbicidal rating ABUTH” value ([2]; Rate 0.2500 kg/ha) was 9.0. The “Preemergence herbicidal rating CHEAL” value ([3]; Rate 0.0620 kg/ha) was 9.0, the “Preemergence herbicidal rating CHEAL” value ([3]; Rate 0.1250 kg/ha) was 9.0 and the “Preemergence herbicidal rating CHEAL” value ([3]; Rate 0.2500 kg/ha) was 9.0. For the same molecule, the “Preemergence herbicidal rating CASOB” value ([4]; Rate 0.0620 kg/ha) was 2.5, the “Preemergence herbicidal rating CASOB” value ([4]; Rate 0.1250 kg/ha) was 4.5 and the “Preemergence herbicidal rating CASOB” value ([4]; Rate 0.2500 kg/ha) was 7.5. The “Preemergence herbicidal rating AMBEL” value ([5]; Rate 0.0620 kg/ha) was 8.5, the “Preemergence herbicidal rating AMBEL” value ([5]; Rate 0.1250 kg/ha) was 9.0 and the “Preemergence herbicidal rating AMBEL” value ([5]; Rate 0.2500 kg/ha) was 9.0. For the same molecule, the “Preemergence herbicidal rating ZEAMX” value ([6]; Rate 0.0620 kg/ha) was 7.0, the “Preemergence herbicidal rating ZEAMX” value ([6]; Rate 0.1250 kg/ha) was 7.5 and the “Preemergence herbicidal rating ZEAMX” value ([6]; Rate 0.2500 kg/ha) was 8.5. For the same molecule, the SETVI herbicidal rating ([7]; rate 0.0320 kg/ha) was 9.0, the SETVI herbicidal rating ([7]; rate 0.0620 kg/ha) was 5.0 and the “Preemergence herbicidal rating IPOHE” value ([8]; Rate 0.0620 kg/ha) was 3.0. For the same molecule, the “Preemergence herbicidal rating IPOHE” value ([8]; Rate 0.1250 kg/ha) was 4.0, the “Preemergence herbicidal rating IPOHE” value ([8]; Rate 0.2500 kg/ha) was 7.5 and the “herbicidal rating, ECHORC” value ([9]; rate 0.0080 kg/ha) was 0.0. The “herbicidal rating, ECHORC” value ([9]; rate 0.0320 kg/ha) was 5.0, the “herbicidal rating, ECHORC” value ([9]; rate 0.1250 kg/ha) was 9.0 and the ECHCG herbicidal rating ([10]; rate 0.0320 kg/ha) was 4.0. The ECHCG herbicidal rating ([10]; rate 0.0620 kg/ha) was 4.0, the “herbicidal rating, SAGPY” value ([11]; rate 0.0080 kg/ha) was 0.0 and the “herbicidal rating, SAGPY” value ([11]; rate 0.0320 kg/ha) was 0.0. The “herbicidal rating, SAGPY” value ([11]; rate 0.1250 kg/ha) was 5.0, the TRZAWR herbicidal rating ([12]; rate 0.0320 kg/ha) was 2.0 and the TRZAWR herbicidal rating ([12]; rate 0.0620 kg/ha) was 3.5. The “Preemergence herbicidal rating GLXMAW” value ([13]; Rate 0.0620 kg/ha) was 4.0, the “Preemergence herbicidal rating GLXMAW” value ([13]; Rate 0.1250 kg/ha) was 6.0 and the “Preemergence herbicidal rating GLXMAW” value ([13]; Rate 0.2500 kg/ha) was 9.0. For the same molecule, the “herbicidal rating, CYPIR” value ([14]; rate 0.0080 kg/ha) was 0.0, the “herbicidal rating, CYPIR” value ([14]; rate 0.0320 kg/ha) was 7.0 and the “herbicidal rating, CYPIR” value ([14]; rate 0.1250 kg/ha) was 9.0. The “herbicidal rating, ORYSAT (rice tolerance)” value (from here on “herbicidal rating, ORYSAT”) ([15]; rate 0.0080 kg/ha) was 0.0, the “herbicidal rating, ORYSAT” value ([15]; rate 0.0320 kg/ha) was 3.0 and the “herbicidal rating, ORYSAT” value ([15]; rate 0.1250 kg/ha) was 7.0.
